# Measurements taken from US7439415B2, “Population of Hoxb8 mutants and uses in identifying agents for treating repetitive behaviors” (priority 2001, dated 2008).
# Counter-ions that a name gives are not always drawn.
# System: Hoxb8 mutant animals
# Assay: Fluoxetine treatment of Hoxb8 mutant mice with excessive grooming (induced grooming assay / hair regrowth)
# Format: in vivo, mouse
# Settings: 10 mg/kg/day via Alzet mini-osmotic pumps, thirty days of treatment
structure (smiles),measurement,value
"CNCCC(Oc1ccc(C(F)(F)F)cc1)c1ccccc1 (stereo not shown) [Flu, Fluoxetine-HCl]",hair regrowth / efficacy against excessive grooming behavior,exhibited signs of hair regrowth
